Measured values: patent US9108944B2, “Androgen receptor modulators and uses thereof” (ARAGON PHARMACEUTICALS, INC., priority 2010, dated 2015)

How the values were obtained:
AR-VP16 [1] = biological target: T1, AR-VP16 (Homo sapiens, UniProt P10275); test: AR-VP16 DNA Binding Assay, agonist mode (HepG2 cells); format: cell-based; conditions: Emax >20x DMSO control = agonist
T1 sequence (P10275 560-920 limits assumed): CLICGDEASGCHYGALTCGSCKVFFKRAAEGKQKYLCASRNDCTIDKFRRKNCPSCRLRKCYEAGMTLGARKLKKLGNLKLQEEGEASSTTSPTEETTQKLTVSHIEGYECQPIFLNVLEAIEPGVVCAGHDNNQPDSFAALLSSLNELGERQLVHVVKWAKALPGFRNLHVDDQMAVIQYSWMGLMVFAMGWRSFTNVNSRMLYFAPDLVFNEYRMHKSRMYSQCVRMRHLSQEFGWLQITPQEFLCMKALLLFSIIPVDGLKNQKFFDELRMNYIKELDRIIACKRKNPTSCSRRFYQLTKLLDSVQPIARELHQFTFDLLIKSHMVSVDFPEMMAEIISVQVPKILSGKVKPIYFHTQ

AR-VP16 [2] = biological target: T1, AR-VP16; test: AR-VP16 DNA Binding Assay, antagonist mode (HepG2 cells, 0.1 nM R1881); format: cell-based
Outline: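 HepG2 cells transiently transfected with AR-VP16 (Lipofectin), incubated overnight, then treated with compound in RPMI with charcoal-stripped serum. Antagonist mode adds R1881 at 0.1 nM final. Cells lysed after 48 h incubation for read-out.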

SMILES	ARVP16 DNA Binding Assay (Agonist mode): Agonist? (AR-VP16 [1])	IC50 (AR-VP16 [2])
N#Cc1ncc(N2C(=O)C3(CCC3)N(c3ccc(C(=O)NCCN4CCOCC4)c(F)c3)C2=S)cc1C(F)(F)F [Compound 242, 4-(7-(6-Cyano-5-(trifluoromethyl)pyridin-3-yl)-8-oxo-6-thioxo-5,7-diazaspiro[3.4]octan-5-yl)-2-fluoro-N-(2-morpholinoethyl)benzamide]	No (Agonist defined as a compound whose Emax in the ARVP16 DNA Binding Assay (Agonist mode) is >20x DMSO control)	< 1 µM
N#Cc1ncc(N2C(=O)C3(CCC3)N(c3c(F)cccc3F)C2=S)cc1C(F)(F)F [Compound 73, 5-(5-(2,6-Difluorophenyl)-8-oxo-6-thioxo-5,7-diazaspiro[3.4]octan-7-yl)-3-(trifluoromethyl)picolinonitrile]	Yes (Agonist defined as a compound whose Emax in the ARVP16 DNA Binding Assay (Agonist mode) is >20x DMSO control)	< 1 µM
N#Cc1ncc(N2C(=O)C3(CCC3)N(c3ccc(C(=O)NCc4ccncc4)c(F)c3)C2=S)cc1C(F)(F)F [Compound 259, 4-(7-(6-Cyano-5-(trifluoromethyl)pyridin-3-yl)-8-oxo-6-thioxo-5,7-diazaspiro[3.4]octan-5-yl)-2-fluoro-N-(pyridin-4-ylmethyl)benzamide]	No (Agonist defined as a compound whose Emax in the ARVP16 DNA Binding Assay (Agonist mode) is >20x DMSO control)	< 1 µM
N#Cc1ncc(N2C(=O)C3(CCC3)N(c3ccc(F)c(OCCc4cccnc4)c3)C2=S)cc1C(F)(F)F [Compound 159, 5-(5-(4-Fluoro-3-(2-(pyridin-3-yl)ethoxy)phenyl)-8-oxo-6-thioxo-5,7-diazaspiro[3.4]octan-7-yl)-3-(trifluoromethyl)picolinonitrile]	No (Agonist defined as a compound whose Emax in the ARVP16 DNA Binding Assay (Agonist mode) is >20x DMSO control)	> 1 µM
N#Cc1ncc(N2C(=O)C3(CCC3)N(c3ccc(S(N)(=O)=O)cc3)C2=S)cc1C(F)(F)F [Compound 81, 4-(7-(6-cyano-5-(trifluoromethyl)pyridin-3-yl)-8-oxo-6-thioxo-5,7-diazaspiro-[3.4]octan-5-yl)benzenesulfonamide]	No (Agonist defined as a compound whose Emax in the ARVP16 DNA Binding Assay (Agonist mode) is >20x DMSO control)	> 1 µM
COCCN(C)C(=O)c1ccc(N2C(=S)N(c3cnc(C#N)c(C(F)(F)F)c3)C(=O)C23CCC3)cc1F [Compound 250, 4-(7-(6-Cyano-5-(trifluoromethyl)pyridin-3-yl)-8-oxo-6-thioxo-5,7-diazaspiro[3.4]octan-5-yl)-2-fluoro-N-(2-methoxyethyl)-N-methylbenzamide]	No (Agonist defined as a compound whose Emax in the ARVP16 DNA Binding Assay (Agonist mode) is >20x DMSO control)	> 1 µM
COC(=O)c1ccc(N2C(=S)N(c3cnc(C#N)c(C)c3)C(=O)C23CCC3)c(F)c1 [Compound 71, Methyl 4-(7-(6-cyano-5-methylpyridin-3-yl)-8-oxo-6-thioxo-5,7-diazaspiro[3.4]octan-5-yl)-3-fluorobenzoate]	No (Agonist defined as a compound whose Emax in the ARVP16 DNA Binding Assay (Agonist mode) is >20x DMSO control)	> 1 µM
N#Cc1ncc(N2C(=O)C3(CCC3)N(c3ccc(Oc4cnccn4)cc3)C2=S)cc1C(F)(F)F [Compound 207, 5-(8-Oxo-5-(4-(pyrazin-2-yloxy)phenyl)-6-thioxo-5,7-diazaspiro[3.4]octan-7-yl)-3-(trifluoromethyl)picolinonitrile]	No (Agonist defined as a compound whose Emax in the ARVP16 DNA Binding Assay (Agonist mode) is >20x DMSO control)	< 1 µM
N#Cc1ncc(N2C(=O)C3(CCC3)N(c3ccc(C(=O)Nc4cccnc4)c(F)c3)C2=S)cc1C(F)(F)F [Compound 262, 4-(7-(6-Cyano-5-(trifluoromethyl)pyridin-3-yl)-8-oxo-6-thioxo-5,7-diazaspiro[3.4]octan-5-yl)-2-fluoro-N-(pyridin-3-yl)benzamide]	No (Agonist defined as a compound whose Emax in the ARVP16 DNA Binding Assay (Agonist mode) is >20x DMSO control)	< 1 µM
N#Cc1ncc(N2C(=O)C3(CCC3)N(c3ccc(OCCc4cccnc4)c(F)c3)C2=S)cc1C(F)(F)F [Compound 144, 5-(5-(3-Fluoro-4-(2-(pyridin-3-yl)ethoxy)phenyl)-8-oxo-6-thioxo-5,7-diazaspiro[3.4]octan-7-yl)-3-(trifluoromethyl)picolinonitrile]	Yes (Agonist defined as a compound whose Emax in the ARVP16 DNA Binding Assay (Agonist mode) is >20x DMSO control)	< 1 µM
N#Cc1ncc(N2C(=O)C3(CCC3)N(c3ccc(F)c(C(=O)NCCN4CCCC4)c3)C2=S)cc1C(F)(F)F [Compound 251, 5-(7-(6-Cyano-5-(trifluoromethyl)pyridin-3-yl)-8-oxo-6-thioxo-5,7-diazaspiro[3.4]octan-5-yl)-2-fluoro-N-(2-(pyrrolidin-1-yl)ethyl)benzamide]	No (Agonist defined as a compound whose Emax in the ARVP16 DNA Binding Assay (Agonist mode) is >20x DMSO control)	> 1 µM
N#Cc1ncc(N2C(=O)C3(CCC3)N(c3ccc(Oc4ccncc4)cc3)C2=S)cc1C(F)(F)F [Compound 40, 5-(8-Oxo-5-(4-(pyridin-4-yloxy)phenyl)-6-thioxo-5,7-diazaspiro[3.4]octan-7-yl)-3-(trifluoromethyl)picolinonitrile]	No (Agonist defined as a compound whose Emax in the ARVP16 DNA Binding Assay (Agonist mode) is >20x DMSO control)	< 1 µM
Cc1ccc(N2C(=S)N(c3cnc(C#N)c(C(F)(F)F)c3)C(=O)C23CCC3)cc1F [Compound 49, 5-(5-(3-Fluoro-4-methylphenyl)-8-oxo-6-thioxo-5,7-diazaspiro[3.4]octan-7-yl)-3-(trifluoromethyl)picolinonitrile]	No (Agonist defined as a compound whose Emax in the ARVP16 DNA Binding Assay (Agonist mode) is >20x DMSO control)	< 1 µM
Cc1cc(N2C(=O)C3(CCC3)N(c3ccc(OC4CCS(=O)(=O)CC4)cc3)C2=S)cnc1C#N [Compound 201, 5-(5-(4-((1,1-Dioxidotetrahydro-2H-thiopyran-4-yl)oxy)phenyl)-8-oxo-6-thioxo-5,7-diazaspiro[3.4]octan-7-yl)-3-methylpicolinonitrile]	No (Agonist defined as a compound whose Emax in the ARVP16 DNA Binding Assay (Agonist mode) is >20x DMSO control)	< 1 µM
Cc1ccc(-c2ccc(N3C(=S)N(c4cnc(C#N)c(C)c4)C(=O)C34CCC4)cc2)cn1 [Compound 96, 3-Methyl-5-(5-(4-(6-methylpyridin-3-yl)phenyl)-8-oxo-6-thioxo-5,7-diazaspiro[3.4]octan-7-yl)picolinonitrile]	No (Agonist defined as a compound whose Emax in the ARVP16 DNA Binding Assay (Agonist mode) is >20x DMSO control)	< 1 µM
Cc1ccc(N2C(=S)N(c3ccc(C#N)c(C(F)(F)F)n3)C(=O)C23CCC3)cc1 [Compound 34, 6-(8-Oxo-6-thioxo-5-(p-tolyl)-5,7-diazaspiro[3.4]octan-7-yl)-2-(trifluoromethyl)nicotinonitrile]	No (Agonist defined as a compound whose Emax in the ARVP16 DNA Binding Assay (Agonist mode) is >20x DMSO control)	> 1 µM
